This is an account of results in patent publication US9458162B2, “Cyclic molecules as bruton's tyrosine kinase inhibitors” (Nanjing Allgen Pharma Co. Ltd., priority 2012, dated 2016).

This assay has as its target T1, Human BTK enzyme (Homo sapiens, UniProt Q06187).
T1 construct: Reaction Biology Corporation
Nature of the assay: BTK inhibitory activity assay at Reaction Biology Corporation, peptide substrate. The format is biochemical. To be noted: peptide substrate 20 μM, ATP 10 μM; for inhibition at 0.005 µM: read-out: Inhibition of ALK, IC50 (Inhibitory Activities of examples at 5 nM).

Molecules are shown by their SMILES.

T1 sequence (Q06187 whole entry): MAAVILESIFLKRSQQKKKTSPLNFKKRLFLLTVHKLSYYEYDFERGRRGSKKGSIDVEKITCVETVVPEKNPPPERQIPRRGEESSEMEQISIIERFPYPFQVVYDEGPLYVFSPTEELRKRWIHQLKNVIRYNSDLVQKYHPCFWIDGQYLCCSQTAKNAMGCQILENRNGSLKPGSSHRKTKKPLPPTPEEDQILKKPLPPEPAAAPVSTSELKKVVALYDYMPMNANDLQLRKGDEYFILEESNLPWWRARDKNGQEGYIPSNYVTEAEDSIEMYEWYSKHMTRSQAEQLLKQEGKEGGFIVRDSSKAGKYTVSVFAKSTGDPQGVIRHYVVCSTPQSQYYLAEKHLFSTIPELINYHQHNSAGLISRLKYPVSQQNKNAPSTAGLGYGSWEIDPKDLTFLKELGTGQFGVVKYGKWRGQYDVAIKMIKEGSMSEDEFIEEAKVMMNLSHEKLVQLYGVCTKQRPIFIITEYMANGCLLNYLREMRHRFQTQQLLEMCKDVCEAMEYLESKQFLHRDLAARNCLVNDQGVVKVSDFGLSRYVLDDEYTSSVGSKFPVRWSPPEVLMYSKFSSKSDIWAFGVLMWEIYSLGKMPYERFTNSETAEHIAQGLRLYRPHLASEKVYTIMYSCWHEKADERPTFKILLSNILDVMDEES

The compound `C=CC(=O)N1CC2(CC(n3nc(-c4ccc(Oc5ccccc5)cc4)c4c(N)ncnc43)C2)C1` [Example 1, 1-(6-(4-Amino-3-(4-phenoxyphenyl)-1H-pyrazolo[3,4-d]pyrimidin-1-yl)-2-azaspiro[3.3]heptan-2-yl)prop-2-en-1-one] returned an IC50 of 1.48 nM. Moreover, the inhibition at 0.005 µM (compound at 5 nM) is 98.5%.

With `C=CC(=O)N1CCC2(CC1)CC(n1nc(-c3ccc(Oc4ccccc4)cc3)c3c(N)ncnc31)C2` [Example 2, 1-(2-(4-amino-3-(4-phenoxyphenyl)-1H-pyrazolo[3,4-d]pyrimidin-1-yl)-7-azaspiro[3.5]nonan-7-yl)prop-2-en-1-one], where the note is “compound at 5 nM”, the inhibition at 0.005 µM worked out at 80.1%. On the same count and under the same terms, next, `C=CC(=O)N1CC2(CCC(n3nc(-c4ccc(Oc5ccccc5)cc4)c4c(N)ncnc43)CC2)C1` [Example 3, 1-(7-(4-amino-3-(4-phenoxyphenyl)-1H-pyrazolo[3,4-d]pyrimidin-1-yl)-2-azaspiro[3.5]nonan-2-yl)prop-2-en-1-one]: 96.4%; `C=CC(=O)N1CCCC2(CC(n3nc(-c4ccc(Oc5ccccc5)cc4)c4c(N)ncnc43)C2)C1` (stereo not drawn) [Example 4A, 1-(2-(4-amino-3-(4-phenoxyphenyl)-1H-pyrazolo[3,4-d]pyrimidin-1-yl)-6-azaspiro[3.5]nonan-6-yl)prop-2-en-1-one]: 85.7%. Take `C=CC(=O)N1CCCC2(CC(n3nc(-c4ccc(Oc5ccccc5)cc4)c4c(N)ncnc43)C2)C1` (stereo not drawn) [Example 4B, 1-(2-(4-amino-3-(4-phenoxyphenyl)-1H-pyrazolo[3,4-d]pyrimidin-1-yl)-6-azaspiro[3.5]nonan-6-yl)prop-2-en-1-one]: for the setting “compound at 5 nM”, the “percent inhibition of BTK at 5 nM” value came to 97.9%.
